Measurements reported in patent US20250290057A1, “LYTIC AGENT FOR ENTEROCOCCUS FAECALIS” (priority 2022, published 2025).
In brackets after ≈: the same amount, converted by molar mass.

Assays:
E. faecalis isolates = test: Minimal inhibitory concentration of antibacterial agents, "Eiken" DP42 dry plate; format: cell-based, Enterococcus faecalis; details: for MIC: Enterococcus faecalis, read-out: Minimal inhibitory concentration; for Sensitivity of strains to antibacterial agent: all E. faecalis strains (11 strains)
Procedure: (§1) The sensitivity to an antibacterial agent for each of the above-described 30 Enterococcus bacterial strains was invenstigated. Specifically, the bacterial strains prepared in 1 McFarland standard with physiological saline were diluted 500-fold with a BHI culture medium, and then aerobically cultured in solid-phase wells of an “Eiken” DP42 dry plate (Eiken Chemical Co., Ltd., Tokyo, Japan) for 24 hours.
(§2) The minimal inhibitory concentration of any one of the antibacterial agents, i.e., daptomycin (DAP), vancomycin (VCM), teicoplanin (TEIC), and linezolid (LZD), was determined in accordance with the instruction of the product. […] The results obtained by testing resistance to the antibacterial agents of the E. faecalis strains (11 strains) are shown in Table 1 below.

E. faecium isolates = test: as above; format: cell-based, Enterococcus faecium; details: all E. faecium (19 strains)
Procedure: as §1, §2

[1] = test system: E. faecalis isolate OCU031_14_8; test: Lytic activity by turbidity (OD600) of cell resuspension liquid; format: cell-based, Enterococcus faecalis; details: final concentration of 50 μg/mL
Procedure: The E. faecalis isolate OCU031_14_8 was aerobically cultured in a BHI culture medium, and centrifuged at 3,000×g for 15 minutes for collection. The cell pellets were washed, and resuspended in a HiTrap buffer. The phage-derived endolysin was added at a final concentration of 50 μg/mL to the cell resuspension liquid. The turbidity (OD600) was measured with a TVS062CA BioPhoto recorder (ADVANTEC Co., Ltd., Tokyo, Japan) every 1 minute to measure the lytic activity.

[2] = test system: E. faecium strain JCM5804; test: Lytic activity using presence or absence of a bacterial lump as an index; format: cell-based; design: key to Lysis by endolysin: lyzed: +; not lyzed: −; details: 50 μg/mL
Procedure: (§3) The hemolytic activity of each of the bacterial strains was measured with a hemolysis assay using a Nissui Plate Horse Blood Agar medium. The cytolysin-related gene was detected with PCR. The vancomycin resistance was evaluated using the method described in (2) in Example 2. The vanA gene and the vanB gene that are vancomycin-resistant genes were detected with PCR. Furthermore, each bacterial strain was aerobically cultured in a BHI culture medium, and centrifuged at 300×g for 5 minutes for collection. The cell pellets were washed, and resuspended in a HiTrap buffer. The phage-derived endolysin was added at a final concentration of 50 μg/mL to the cell resuspension liquid. The resulting suspension was incubated at 37° C., and the lytic activity was measured, using the presence or absence of a bacterial lump as an index.

[3] = test system: E. faecalis strains JCM5803, JCM8902; test: as above; format: cell-based; design: key to Lysis by endolysin: lyzed: +; not lyzed: −; details: 50 μg/mL; for Lysis by endolysin: 37° C.
Procedure: as §3

[4] = test system: biofilms of 11 E. faecalis isolates; test: Biofilm assay using crystal-violet staining; format: cell-based, Enterococcus faecalis; details: final concentration of 50 μg/mL, incubated overnight; all 11 E. faecalis strains
Procedure: A biofilm assay was performed, using crystal-violet staining, in accordance with a method described in the past literature (Yang, Y., et al., J Appl Oral Sci., 2018, 26: e20170566; Shao, C., et al., J Proteome res., 2012, 11 (9): 4465-75; He Z., et al., Int J Antimicrob Agents., 2012, 40 (1): 30-5). This assay is a method in which a crystal violet pigment is adsorbed into a bacteria-derived biofilm (comprising an extracellular matrix and the like), and then, ethanol is added to the resulting biofilm to elute the crystal violet pigment, the absorbance of which is measured to quantify the amount of the pigment.
Specifically, each of the 11 species of E. faecalis isolates was cultured at 37° C. overnight in a BHI culture medium supplemented with aztreonam (20 μg/mL), polymyxinB (20 μg/mL), and amphotericinB (4 μg/mL). Then, the isolate was diluted 100-fold with a new BHI culture medium, inoculated into a 96-well flat-bottomed polystyrene microtiter plate (Corning, Inc., Arizona, USA, 353072), and aerobically cultured further at 37° C. for 24 hours. Then, the 96-well plate was washed once with 200 μL of a HiTrap buffer, and 200 μL of phage-derived endolysin or a vehicle (SUMO protein having a His tag added thereto) was added (at a final concentration of 50 μg/mL). […] The absorbance of the sample was measured at 570 nm. […]

[5] = test system: GVHD model mice in which patient feces (OCU031_14) with Enterococcus dominance was transplanted; test: Administration to GVHD model mice in which fecal sample was transplanted; format: in vivo; details: 200 μg orally three times a week
Procedure: All the animal experiments were performed with the approval of the Animal Care and Use Committee of Osaka Metropolitan University. […] The survival rate after Day 0 was monitored every day, and the composition of the enteric microbes on each of Day 0 and Day 8 was analyzed by 16S rRNA gene sequencing.

[6] = test system: GVHD model mice to which E. faecalis OCU031_14_8 strain was administered; test: Administration to GVHD model mice to which E. faecalis was administered; format: in vivo
Procedure: All the animal experiments were performed with the approval of the Animal Care and Use Committee of Osaka Metropolitan University. Germ-free C57BL/6 female mice (H2k^b) and SPF 129SvJ/JmsSlc female mice (6 to 8 weeks old) were purchased from SLC Japan Inc. (Hamamatsu, Japan) and CLEA Japan, Inc. (Tokyo, Japan) respectively. The mice were reared under temperature control (23±2° C.) under dark-period conditions from 8 pm to 8 am, and allowed to freely take sterile water and standard solid food for laboratory mice. The germ-free C57BL/6 mice were reared, one individual in one cage.
Before the stem cell transplantation, a suspension of E. faecalis OCU031_14_8 strain was orally administered to the germ-free C57BL/6 female mice. The suspension used was a suspension in which a 2.0×10^8 colony forming unit (cfu) was suspended in 200 μL of sterile PBS. […]
The survival rate after Day 0 was monitored every day. All the survival periods of the groups were statistically analyzed and compared using a generalized Wilcoxon test. […] The number of colonies formed was measured to quantify the amount of E. faecalis bacteria in the feces. […]

[7] = E. faecalis strain OCU009_35_10
[8] = E. faecalis strain OCU031_pre_6
[9] = E. faecalis strain OCU031_pre_7
[10] = E. faecalis strain OCU031_pre_10

Row | Molecule | Minimal inhibitory concentration (E. faecalis isolates; E. faecalis strain OCU009_35_4) | Minimal inhibitory concentration (E. faecalis isolates; [7]) | Minimal inhibitory concentration (E. faecalis isolates; E. faecalis strain OCU015_56_6) | Minimal inhibitory concentration (E. faecalis isolates; E. faecalis strain OCU031_7_1) | Minimal inhibitory concentration (E. faecalis isolates; E. faecalis strain OCU031_7_9) | Minimal inhibitory concentration (E. faecalis isolates; E. faecalis strain OCU031_14_5) | Minimal inhibitory concentration (E. faecalis isolates; E. faecalis strain OCU031_14_8) | Minimal inhibitory concentration (E. faecalis isolates; [8]) | Minimal inhibitory concentration (E. faecalis isolates; [9]) | Minimal inhibitory concentration (E. faecalis isolates; [10]) | MIC (E. faecalis isolates; E. faecalis strain OCU015_56_7) | Sensitivity of strains to antibacterial agent (E. faecalis isolates) | Sensitivity of strains to antibacterial agent (E. faecium isolates) | also measured
1 | CCCCCCCCCC(=O)N[C@@H](Cc1c[nH]c2ccccc12)C(=O)N[C@H](CC(N)=O)C(=O)N[C@@H](CC(=O)O)C(=O)N[C@@H]1C(=O)NCC(=O)N[C@@H](CCCN)C(=O)N[C@@H](CC(=O)O)C(=O)N[C@H](C)C(=O)N[C@@H](CC(=O)O)C(=O)NCC(=O)N[C@H](CO)C(=O)N[C@@H]([C@H](C)CC(=O)O)C(=O)N[C@@H](CC(=O)c2ccccc2N)C(=O)O[C@@H]1C [daptomycin] | >4 µg/mL | >4 µg/mL | >4 µg/mL | >4 µg/mL | >4 µg/mL | >4 µg/mL | >4 µg/mL | >4 µg/mL | >4 µg/mL | >4 µg/mL | > 4 µg/mL | exhibited sensitivity | exhibited sensitivity | 
2 | CC(=O)NC[C@H]1CN(c2ccc(N3CCOCC3)c(F)c2)C(=O)O1 [linezolid] | 2 µg/mL (≈ 5.93 µM) | 2 µg/mL (≈ 5.93 µM) | 2 µg/mL (≈ 5.93 µM) | 2 µg/mL (≈ 5.93 µM) | 2 µg/mL (≈ 5.93 µM) | 2 µg/mL (≈ 5.93 µM) | 2 µg/mL (≈ 5.93 µM) | 2 µg/mL (≈ 5.93 µM) | 2 µg/mL (≈ 5.93 µM) | 2 µg/mL (≈ 5.93 µM) | 2 µg/mL (≈ 5.93 µM) | exhibited sensitivity | exhibited sensitivity | 
3 | teicoplanin | 1 µg/mL | 2 µg/mL | 0.5 µg/mL | 2 µg/mL | 2 µg/mL | 1 µg/mL | 1 µg/mL | 1 µg/mL | 1 µg/mL | 1 µg/mL |  | exhibited sensitivity | exhibited sensitivity | Minimal inhibitory concentration (E. faecalis isolates; E. faecalis strain OCU015_56_7): 0.5 µg/mL
4 | phage-derived endolysin: endolysin of SEQ ID NO: 1 found in prophage sequences of 11 E. faecalis isolates; produced from a His-SUMO-labeled expression vector (protein, His-SUMO tag; Enterococcus faecalis-derived prophage, produced from a His-SUMO-labeled expression vector) MTLNGIDISSWQSNINVGKEGVSADFVIIKATGGTGYINPDCDRAFQQAISSGKKVAVYHFANEVGLEGTAEQEAEFFLKNIKGYIGKAVLVLDWESTNKGDVPWAKRWLDYVQSKTGVKPMFYTYTNVLQSYNFSSIAKADYGLWLADYGANNPQGYSQPTPPSVPYWNFISMYQYTSNGQLPGWNGRLDLNVFFGDRNMWDKYANPKSNPTPAPPVPPKPKRRYGYRVDDLQFVNGIWQVRNDVLGQPDFDWTENGINVAYIDKINPATGENTPDQELKVGDYFAFQPSSVGIITEQYSLNGKTISHVQFPDEFIWLYTESVEKLIYG |  |  |  |  |  |  |  |  |  |  |  |  |  | Lytic activity (OD600 turbidity) [1]: lysed; Lytic activity ([2]; JCM5804 strain, E. faecium isolate): did not exhibit a lytic activity; Lysis by endolysin ([2]; strain JCM5804, 37° C.): −; Lytic activity ([3]; JCM8902 strain, vancomycin-resistant and cytolysin-positive E. faecalis isolate): exhibited a lytic activity; Lysis by endolysin ([3]; strain JCM5803): +; Lysis by endolysin ([3]; strain JCM8902 (vancomycin-resistant, cytolysin-positive)): +; Lysis of biofilm (crystal violet, absorbance at 570 nm) [4]: lysed; Ratio of Enterococcus bacteria present in the enteric microbes ([5]; 8 days after the stem cell transplantation, 16S rRNA gene sequencing): decreased significantly; Survival rate ([5]; 30 days after the stem cell transplantation): 100%; Amount of the E. faecalis bacteria in the feces ([6]; 200 μg orally three times a week (10 mg/kg/day) from Day 0 until the third week): noticeable decrease; Survival rate ([6]; 25 days after the stem cell transplantation, 200 μg orally three times a week): 100%
